Values quoted from earlier work in patent US20090136550A1, “MODIFIED RELEASE FORMULATIONS OF DILTIAZEM” (Capricorn Pharma Inc., priority 2007, published 2009).
Counter-ions that a name gives are not always drawn.

For COc1ccc([C@@H]2Sc3ccccc3N(CCN(C)C)C(=O)[C@@H]2OC(C)=O)cc1 [diltiazem hydrochloride], the water solubility is listed as “highly water soluble”.
